# Where two headings read alike, the source gives them in different places.
# Columns and labels:
# [1] = Plasma stability assay; type: in vitro ADME; parameters: half-life: dose or concentration left out as unconfirmed
# Procedure: The representative compound, compound 3, was also assessed in a plasma stability assay. Briefly, the compound was present at a concentration […] in plasma from three mammalian species (human, rat, and mouse). The concentration of intact drug (i.e. unmodified drug) at the indicated time points was determined using a LC-MS/MS assay. The data are consistent with good drug stability under the conditions tested.
# [2] = target: T1, BMX/ETK (Homo sapiens, UniProt P51813); test: Specific kinase IC50 assay; type: biochemical; details: 1 μM ATP, 10-dose, duplicate
# T1 sequence (P51813 1-675): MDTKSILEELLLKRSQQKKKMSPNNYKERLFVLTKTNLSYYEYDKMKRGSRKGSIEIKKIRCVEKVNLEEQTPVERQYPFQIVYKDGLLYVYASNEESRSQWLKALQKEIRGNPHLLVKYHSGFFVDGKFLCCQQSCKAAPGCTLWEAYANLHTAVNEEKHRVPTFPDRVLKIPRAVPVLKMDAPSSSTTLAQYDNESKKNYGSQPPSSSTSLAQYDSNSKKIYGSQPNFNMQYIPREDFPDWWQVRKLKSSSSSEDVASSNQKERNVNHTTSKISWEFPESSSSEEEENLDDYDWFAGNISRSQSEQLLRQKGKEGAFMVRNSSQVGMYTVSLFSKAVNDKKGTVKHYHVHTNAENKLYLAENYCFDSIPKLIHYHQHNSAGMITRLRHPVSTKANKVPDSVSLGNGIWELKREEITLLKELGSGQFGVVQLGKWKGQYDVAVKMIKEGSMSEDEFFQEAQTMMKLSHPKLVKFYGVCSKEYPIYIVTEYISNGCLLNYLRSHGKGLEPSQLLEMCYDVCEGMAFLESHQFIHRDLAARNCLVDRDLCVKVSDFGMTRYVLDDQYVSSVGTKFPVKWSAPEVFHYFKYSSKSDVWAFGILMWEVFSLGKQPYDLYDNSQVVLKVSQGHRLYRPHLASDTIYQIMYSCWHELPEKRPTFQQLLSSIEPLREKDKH
# Procedure: (§1) The assays were carried out in the presence of 1 μM ATP and were conducted in a 10-dose format in duplicate with three-fold serial dilutions starting at 10 μM.
# [3] = target: EGFR (T790M) (Homo sapiens, UniProt P00533, T790M); test: Specific kinase IC50 assay; type: biochemical; details: 1 μM ATP, 10-dose, duplicate
# Chain of EGFR (T790M) (P00533 25-1210 T790M, species assumed): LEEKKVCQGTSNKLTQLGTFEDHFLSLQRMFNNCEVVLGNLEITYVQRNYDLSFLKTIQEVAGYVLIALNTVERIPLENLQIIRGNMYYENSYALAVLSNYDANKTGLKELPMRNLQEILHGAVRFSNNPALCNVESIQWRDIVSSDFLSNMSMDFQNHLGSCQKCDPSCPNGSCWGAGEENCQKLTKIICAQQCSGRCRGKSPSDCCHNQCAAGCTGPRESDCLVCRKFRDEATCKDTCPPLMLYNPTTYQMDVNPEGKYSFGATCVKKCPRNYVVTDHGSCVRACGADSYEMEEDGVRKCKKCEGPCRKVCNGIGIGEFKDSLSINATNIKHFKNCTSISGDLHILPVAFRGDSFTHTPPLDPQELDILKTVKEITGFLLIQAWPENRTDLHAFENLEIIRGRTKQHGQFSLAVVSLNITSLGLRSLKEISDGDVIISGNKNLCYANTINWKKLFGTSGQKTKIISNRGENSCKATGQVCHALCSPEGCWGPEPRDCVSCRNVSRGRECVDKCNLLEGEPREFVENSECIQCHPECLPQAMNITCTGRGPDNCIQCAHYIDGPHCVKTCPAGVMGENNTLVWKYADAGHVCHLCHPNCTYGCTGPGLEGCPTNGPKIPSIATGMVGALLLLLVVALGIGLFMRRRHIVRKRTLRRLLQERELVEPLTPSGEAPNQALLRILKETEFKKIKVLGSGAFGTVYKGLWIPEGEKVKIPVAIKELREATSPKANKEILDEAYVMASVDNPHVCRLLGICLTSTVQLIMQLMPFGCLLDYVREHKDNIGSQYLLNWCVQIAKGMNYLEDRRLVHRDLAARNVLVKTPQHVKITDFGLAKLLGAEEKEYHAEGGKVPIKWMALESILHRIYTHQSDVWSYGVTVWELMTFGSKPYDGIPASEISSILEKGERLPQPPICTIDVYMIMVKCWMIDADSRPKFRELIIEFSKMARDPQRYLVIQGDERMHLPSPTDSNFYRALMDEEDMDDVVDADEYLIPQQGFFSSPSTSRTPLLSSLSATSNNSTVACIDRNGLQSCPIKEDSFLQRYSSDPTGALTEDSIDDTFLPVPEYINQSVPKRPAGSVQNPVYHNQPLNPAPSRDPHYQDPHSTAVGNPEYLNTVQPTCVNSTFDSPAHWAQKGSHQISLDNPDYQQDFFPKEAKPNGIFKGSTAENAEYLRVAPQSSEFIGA
# Procedure: as §1
# [4] = target: ERBB4/HER4 (Homo sapiens, UniProt Q15303); test: Specific kinase IC50 assay; type: biochemical; details: 1 μM ATP, 10-dose, duplicate
# Chain of ERBB4/HER4 (Q15303 26-1308): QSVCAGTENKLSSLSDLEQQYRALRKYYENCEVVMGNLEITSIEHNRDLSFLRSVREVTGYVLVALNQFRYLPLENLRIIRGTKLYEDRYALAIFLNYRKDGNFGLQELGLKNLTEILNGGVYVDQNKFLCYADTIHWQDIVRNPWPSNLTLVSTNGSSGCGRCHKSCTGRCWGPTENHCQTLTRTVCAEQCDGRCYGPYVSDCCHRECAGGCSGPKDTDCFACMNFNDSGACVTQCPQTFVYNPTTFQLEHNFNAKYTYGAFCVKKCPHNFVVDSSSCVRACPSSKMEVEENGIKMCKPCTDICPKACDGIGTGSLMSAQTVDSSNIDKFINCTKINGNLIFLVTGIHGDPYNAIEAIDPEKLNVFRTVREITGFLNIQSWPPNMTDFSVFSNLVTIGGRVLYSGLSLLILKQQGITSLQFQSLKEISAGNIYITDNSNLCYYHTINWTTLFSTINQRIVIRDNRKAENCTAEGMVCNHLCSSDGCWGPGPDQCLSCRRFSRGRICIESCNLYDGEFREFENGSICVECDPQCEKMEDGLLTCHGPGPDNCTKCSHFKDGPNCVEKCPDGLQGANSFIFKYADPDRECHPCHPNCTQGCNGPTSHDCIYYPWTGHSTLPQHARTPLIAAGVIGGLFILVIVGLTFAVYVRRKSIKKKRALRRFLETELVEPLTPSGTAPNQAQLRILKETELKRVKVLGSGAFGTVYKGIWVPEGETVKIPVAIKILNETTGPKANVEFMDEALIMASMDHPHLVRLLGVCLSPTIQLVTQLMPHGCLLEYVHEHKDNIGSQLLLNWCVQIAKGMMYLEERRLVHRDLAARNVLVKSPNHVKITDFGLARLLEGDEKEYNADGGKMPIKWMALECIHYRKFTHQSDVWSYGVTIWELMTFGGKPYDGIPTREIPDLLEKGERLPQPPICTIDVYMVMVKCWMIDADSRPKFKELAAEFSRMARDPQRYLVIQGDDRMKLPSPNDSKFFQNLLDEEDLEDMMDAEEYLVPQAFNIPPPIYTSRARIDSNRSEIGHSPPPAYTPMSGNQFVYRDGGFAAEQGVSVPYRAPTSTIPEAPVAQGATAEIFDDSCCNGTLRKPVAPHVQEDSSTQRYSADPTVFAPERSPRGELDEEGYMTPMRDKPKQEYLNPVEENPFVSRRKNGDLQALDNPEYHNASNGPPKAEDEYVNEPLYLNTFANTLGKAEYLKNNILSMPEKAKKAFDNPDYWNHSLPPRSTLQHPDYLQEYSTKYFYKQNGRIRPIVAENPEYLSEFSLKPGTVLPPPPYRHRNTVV
# Procedure: as §1
# [5] = Microsomal stability; type: in vitro ADME, human; details: for Compound Remaining: human microsomes 0.5 mg protein/mL, 1 μM
# Procedure: (§2) Data were also obtained for the stability of Compound 3 when incubated with a microsomal preparation. Drug metabolism can occur, at least in part, in cellular microsomes, and thus the assay assesses the stability of drug to metabolic modification. The concentration of compound 3 was 1 μM in the assay system and the indicated microsomes were present at 0.5 mg total protein per milliliter. The concentration of intact drug was determined at the indicated timepoints using a LC-MS/MS assay. The enzyme activity of the microsomes used in this study were assessed using a positive control, testosterone.
# [6] = Glutathione (GSH) trapping assay; type: in vitro ADME; details: peak area vs intact compound 3 at time zero, 1 mg/mL human liver microsomal protein
# From the text: Drug metabolism in vivo can lead to reactive intermediates that form covalent adducts with cellular materials. Such covalent binding of reactive metabolites is potentially involved in severe adverse drug reactions. However, the covalent binding assay is of low throughput and costly, a qualitative trapping assay measuring trapping of drug glutathione conjugates in human liver microsomes can provide information on the propensity of a drug candidate to be involved in covalent binding reactions. A glutathione (GSH) trapping assay was carried out on representative disclosed compound, compound 3, and the results are shown in Table VIII. […] The assay was carried out with 1 mg total human liver microsomal protein per milliliter.
# [7] = Microsomal stability; type: in vitro ADME, mouse; details: for Compound Remaining: mouse microsomes 0.5 mg protein/mL, 1 μM; for half-life at 1 μM: mouse, microsomes
# Procedure: as §2
# [8] = system: 451 kinase types; test: KINOMEscan Assay Panel broad kinase screen; type: binding, human; details: screen against 451 kinase types
# Procedure: The kinase selectivity of a representative disclosed compound, compound 3 (N-(3-(6-((3-morpholinophenyl)amino)-1H-pyrazolo[3,4-d]pyrimidin-4-yl)phenyl)acrylamide), which corresponds to compound 3 in Table I, was evaluated in multiple kinase assays. A broad based screen was conducted against 451 kinase types using the KINOMEscan Assay Panel. The results were able to map 14 interactions with an S-Score(35)=0.03. The interactions are highlighted in FIG. 4 (panels A and B), and are indicated by the dark circles in the figure.
smiles,measurement,setting,value
"C=CC(=O)Nc1cccc(-c2nc(Nc3cccc(N4CCOCC4)c3)nc3[nH]ncc23)c1 [Compound 3, N-(3-(6-((3-morpholinophenyl)amino)-1H-pyrazolo[3,4-d]pyrimidin-4-yl)phenyl)acrylamide]",half-life,[1]; human plasma,> 120 min
same,Compound Remaining,"[1]; human plasma, 0 min",100 % of initial amount
same,Compound Remaining,"[1]; human plasma, 15 min",90.1 % of initial amount
same,Compound Remaining,"[1]; human plasma, 30 min",99.6 % of initial amount
same,Compound Remaining,"[1]; human plasma, 60 min",91.3 % of initial amount
same,Compound Remaining,"[1]; human plasma, 120 min",78.6 % of initial amount
same,half-life,[1]; mouse plasma,> 120 min
same,Compound Remaining,"[1]; mouse plasma, 0 min",100 % of initial amount
same,Compound Remaining,"[1]; mouse plasma, 15 min",100 % of initial amount
same,Compound Remaining,"[1]; mouse plasma, 30 min",101 % of initial amount
same,Compound Remaining,"[1]; mouse plasma, 60 min",85.8 % of initial amount
same,Compound Remaining,"[1]; mouse plasma, 120 min",91.7 % of initial amount
same,half-life,[1]; rat plasma,> 120 min
same,Compound Remaining,"[1]; rat plasma, 0 min",100 % of initial amount
same,Compound Remaining,"[1]; rat plasma, 15 min",95.2 % of initial amount
same,Compound Remaining,"[1]; rat plasma, 30 min",92.9 % of initial amount
same,Compound Remaining,"[1]; rat plasma, 60 min",80.2 % of initial amount
same,Compound Remaining,"[1]; rat plasma, 120 min",55.9 % of initial amount
same,IC50,[2],9.26 nM
same,IC50,[3],979 nM
same,IC50,[4],17.5 nM
same,half-life at 1 μM,[5]; human microsomes,16 min
same,Compound Remaining,[5]; 0 min,100 % of initial amount
same,Compound Remaining,[5]; 10 min,61.1 % of initial amount
same,Compound Remaining,[5]; 20 min,36.0 % of initial amount
same,Compound Remaining,[5]; 30 min,20.4 % of initial amount
same,Compound Remaining,[5]; 60 min,7.89 % of initial amount
same,microsomal CLint at 1 μM,"[5]; human microsomes, read-out: CLinit (intrinsic clearance)",85 µL/min/mg
same,"% Compared to Parent Compound, 0 min",[6]; 0 min,100%
same,"% Compared to Parent Compound, 60 min",[6]; 60 min,47%
same,Compound Remaining,[7]; 0 min,100 % of initial amount
same,Compound Remaining,[7]; 10 min,24.3 % of initial amount
same,Compound Remaining,[7]; 20 min,6.12 % of initial amount
same,Compound Remaining,[7]; 30 min,1.62 % of initial amount
same,Compound Remaining,[7]; 60 min,0.72 % of initial amount
same,microsomal CLint at 1 μM,"[7]; mouse microsomes, read-out: CLinit (intrinsic clearance)",160 µL/min/mg
same,half-life at 1 μM,"[7]; mouse microsomes, expressed as < shortest incubation time, read-out: t1/2",< 10 min
same,half-life at 1 μM,"[7]; mouse microsomes, read-out: t1/2, calculated half-life in parentheses",8.6 min
same,Number of interactions mapped,[8],14
same,S-Score(35),[8],0.03

# Source: patent US20150252048A1, “SUBSTITUTED N-(3-PYRIMIDIN-4-YL)PHENYL)ACRYLAMIDE ANALOGS AS TYROSINE RECEPTOR KINASE BTK INHIBITORS” (UNIVERSITY OF UTAH RESEARCH FOUNDATION, priority 2012, published 2015)
